Consider 7 substances from PMC2553845, “A Specificity Map for the PDZ Domain Family” (PLoS Biology, 2008).

“Also recorded” adds a separate entry of the source. Where two headings read alike, the source gives them in different places. Where no end group is shown, it is not given here. Some results are limits rather than exact numbers.

For one assay, the system named is SCRIB PDZ domains. The assay can be described thus: Competition ELISA, binding to the SCRIB PDZ domains. The arrangement: species or system Human. As to the method: (§1) Peptides were synthesized with acetylated C termini. The binding affinities of peptides for PDZ domains were determined as 50% inhibition concentration (IC50) values using competition ELISAs, as described. The IC50 value was defined as the concentration of peptide that blocked 50% of PDZ domain binding to immobilized peptide.

For assay [1], the target named is T1, first PDZ domain of ZO-1 (TJP1–1) (Homo sapiens, UniProt Q07157).
T1 construct: the first PDZ domain of ZO-1 (TJP1–1); GST; made in house; host or cells: E. coli
T1 sequence (Q07157 23-110 limits assumed): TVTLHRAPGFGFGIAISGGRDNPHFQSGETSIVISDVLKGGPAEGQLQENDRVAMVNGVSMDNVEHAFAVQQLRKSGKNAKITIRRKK
Briefly: biochemical. It is filed as binding.

Assay [2] concerns Naive Crtam−/− CD4 T cells. Briefly: T cell proliferation, [3H]-thymidine incorporation. The note with it: Crtam−/− CD4 T cells electroporated with Crtam plasmid; peptide 1.0 μM; [3H]-thymidine added after 42 h, harvested 8 h later; representative of three independent experiments. It counts as cell-based. The procedure: (§2) Naïve Crtam^−/− CD4 T cells were purified and activated with plate-bound anti-CD3 and anti-CD28, as described. On day 4, T cells were electroporated with 4 μg of pIRES_GFP or pIRES_GFP/Crtam plasmid DNA by Amaxa Nucleofector (program X-01). Synthetic peptides (1.0 μM) were added into the cultures, and after 6 h, transfected cells were restimulated at 1 × 10^6 cells/ml with plate-bound antibodies and were fixed 14 h later for Talin staining. After 42 h, [^3H]-thymidine (1 μCi/well) was added, and the plates were harvested 8 h later.
A general note: Uptake of a labelled nucleoside into DNA is a usual measure of proliferation.

Assay [3] relates to Naive Crtam−/− CD4 T cells. Briefly: T cell polarization, Talin staining. It counts as cell-based. The conditions noted are these: Crtam−/− CD4 T cells electroporated with Crtam plasmid; peptide 1.0 μM; restimulated after 6 h, fixed 14 h later. The procedure:
as §2

The target in another assay is T2, SCRIB-2 (Homo sapiens, UniProt Q14160).
T2 construct: synthetic peptide that targets SCRIB PDZ domains 1, 2, and 3; GST; made in house; host or cells: E. coli
T2 sequence (Q14160 862-950 limits assumed): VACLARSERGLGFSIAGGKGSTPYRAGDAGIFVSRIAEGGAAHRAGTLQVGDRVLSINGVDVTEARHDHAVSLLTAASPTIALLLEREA
Briefly: Competition ELISA, peptide affinity for PDZ domain. It is filed as binding. As to the method:
as §1
For orientation: ELISA stands for enzyme-linked immunosorbent assay.

A further assay addresses T3, SCRIB-1 (Homo sapiens, UniProt Q14160).
T3 construct: synthetic peptide that targets SCRIB PDZ domains 1, 2, and 3; GST; made in house; host or cells: E. coli
The assay can be described thus: Competition ELISA, peptide affinity for PDZ domain. It counts as binding. As to the method: as §1

A further assay concerns the target T4, SCRIB-3 (Homo sapiens, UniProt Q14160).
T4 construct: synthetic peptide that targets SCRIB PDZ domains 1, 2, and 3; GST; made in house; host or cells: E. coli
T4 sequence (Q14160 1004-1093 limits assumed): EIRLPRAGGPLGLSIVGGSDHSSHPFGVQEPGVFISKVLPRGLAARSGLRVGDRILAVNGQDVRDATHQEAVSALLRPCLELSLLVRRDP
The assay can be described thus: Competition ELISA, peptide affinity for PDZ domain. It is filed as binding. As to the method:
as §1

T3 sequence (Q14160 728-815 limits assumed): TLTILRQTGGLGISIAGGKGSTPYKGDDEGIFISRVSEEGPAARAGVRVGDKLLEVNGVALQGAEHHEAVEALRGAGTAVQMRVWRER

For the substance Ac-KMERTIESEV [compound 10], in the assay with SCRIB PDZ domains, the “Interaction with the SCRIB PDZ domains (in words)” value is recorded as “interact with the SCRIB PDZ domains”.

Regarding “Ac-PPRRHRETYV (N-terminus assumed) [peptide 12]”, the “Interaction with the ZO-1 PDZ domain (TJP1–1) (in words)” value in assay [1] is “bound to both”. The “Interaction with the SCRIB PDZ domains (in words)” value in the assay with SCRIB PDZ domains is recorded as “bound to both”.

On to “Ac-RRRKRKRTYL (N-terminus assumed) [peptide 13]”, for which, in assay [1], the “Interaction with the ZO-1 PDZ domain (TJP1–1) (in words)” value is “interacted only with this domain”. Also, the “Interaction with the SCRIB PDZ domains (in words)” value with SCRIB PDZ domains is recorded as “interacted only with this domain”.

Consider “Ac-RQIKIWFQNRRMKWKKRSWFEAWA (N-terminus assumed) [peptide 15]”, for which the “Effect on T cell proliferation ([3H]-thymidine incorporation)” value in assay [2] is “has no effect”. Further, in assay [3], the “Effect on late phase of T cell polarization (Talin staining)” value was “has no effect”. Further, the “Interaction with the SCRIB PDZ domains (in words)” value in the assay on SCRIB PDZ domains (in vitro, synthesized peptides) is listed as “nonbinding”.

On to “Ac-RQIKIWFQNRRMKWKKRSWFETWV (N-terminus assumed) [peptide 14]”, for which the “Effect on T cell proliferation ([3H]-thymidine incorporation)” value in assay [2] was “triggers T cell proliferation; also recorded: reverses the hypoproliferative effects of Crtam”. In addition, the “Effect on late phase of T cell polarization (Talin staining)” value in assay [3] was “causes loss of late-phase T cell polarization”. Also, in the assay on SCRIB PDZ domains (in vitro, synthesized peptides), the “Interaction with the SCRIB PDZ domains (in words)” value was “binds to the SCRIB PDZ domains with high affinity”.

Turning to Ac-HMARRVESEV [compound 9], in the assay with SCRIB PDZ domains, the “Interaction with the SCRIB PDZ domains (in words)” value is “interact with the SCRIB PDZ domains”.

The IC50 is the concentration that inhibits the measured activity by half. Lower therefore signals inhibition by little substance. With Ac-KMARAARSKV-OH [peptide 11], the 50% inhibitory concentration (IC50) (at SCRIB-2; on SCRIB-1; on SCRIB-3; in assay [1]) was above 500 µM throughout. Besides, the “Interaction with the SCRIB PDZ domains (in words)” value with SCRIB PDZ domains is given as “does not”.
